The record followed here is patent US9814758B2, “Inhibitors of apoptosis and uses thereof” (CENTRE NATIONAL DE LA RECHERCHE SCIENTIFIQUE-CNRS, priority 2010, dated 2017).

No end group written: not given here.

For one assay, the system named is C2C12 cells. The experiment in a line: STS-induced DNA fragmentation (Cell Death detection ELISA PLUS) in C2C12 cells. Type of assay: cell-based, mouse. The note with it: murine C2C12 (model for muscle cells); FIG. 5A. The procedure:
FIG. 5: In vitro evaluation of the anti-apoptotic activity of CPPs and CPP-conjugates. Workflow and quantitation of DNA fragmentation in (A) C2C12 cells, (B) primary cardiomyocytes, (C) H9c2 cells and (D) NG108-15 cells. Data were normalized to 100% STS. Data shown are the means±SEM, with n≧5. Cells were seeded in 24-well plates and grown overnight. The next day, the cells were incubated with STS alone or with STS+1 μM peptide (in OPTI-MEM) (OPTI-MEM® is a modification of Eagle's Minimum Essential Media, buffered with HEPES and sodium bicarbonate, and supplemented with hypoxanthine, thymidine, sodium pyruvate, L-glutamine, trace elements, and growth factors) (STS concentration and incubation time for each cells are given in the figure). […] Following the regeneration phase, the cells were lyzed and DNA fragmentation was detected according to manufacturer's instructions (Cell Death detection ELISA^PLUS kit—Roche Diagnostics). […]
Thereafter, the capacity of these peptides to inhibit apoptosis induced by staurosporine was evaluated. Apoptosis was determined using the Cell Death detection ELISA^PLUS kit (Roche) measuring the DNA fragmentation.
The anti-apoptotic effects of the peptides were also analyzed in murine NG118-15 (model for neuronal cells) (FIG. 5D), in murine C2C12 (model for muscle cells) (FIG. 5A) and in rat H9c2 (model for cardiac cells) (FIG. 5C). […]
(ELISA stands for enzyme-linked immunosorbent assay.)

Assay [1] has as its target T1, His-tagged intracellular region of Fas receptor (Homo sapiens, UniProt P25445).
T1 construct: His-tagged intracellular region of Fas receptor [10 μg/ml]; purchased Sigma
T1 sequence (P25445 191-335 limits assumed): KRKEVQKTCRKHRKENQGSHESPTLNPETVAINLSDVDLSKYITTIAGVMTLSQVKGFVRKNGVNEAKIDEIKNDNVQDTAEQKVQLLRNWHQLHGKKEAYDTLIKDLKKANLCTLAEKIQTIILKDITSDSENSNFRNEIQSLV
Briefly: SPOT peptide array, enzyme-linked blot with His-tagged Fas. Type of assay: binding. The following applies: Fas 10 μg/ml; anti-His/anti-mouse-HRP. The procedure: FIG. 1: Determination of the DAXX epitope by SPOT synthesis. (A) The amino acid sequence of DAXX was dissected in overlapping peptide arrays (pepscan; 15 mer peptides with a shift of 3 amino acids) and analyzed in enzyme-linked blot. […] Incubation conditions: His-tagged intracellular region of Fas receptor [10 μg/ml]; antibodies: anti-His-(mouse) (Sigma H1029; 1:6,000)/anti-mouse-HRP (Calbiochem 401207; 1:2,000), exposure time: 1 minute. (B) Alignment of the human DAXX sequence comprising the 16-mer KKSRKEKKQTGSGPLG (=DAXXp of SEQ ID NO: 5) with the DAXX sequences of other species (mouse, rat, dog (CANFA) and green monkey (CHLAE)).
FIG. 2: Determination of the optimal length of the DAXX epitope (=DAXXp) by SPOT synthesis. (A) The DAXXp-211 and DAXXp-209 peptides (of SEQ ID NO: 2 and SEQ ID NO: 3, respectively) were successively shortened by one amino acid residue at the N-terminus, at the C-terminus and both at the N- and the C-termini, and analyzed using enzyme-linked blot. […] Incubation conditions: His-tagged intracellular region of Fas receptor [10 μg/ml]; antibodies: anti-His-(mouse) (Sigma H1029; 1:6,000)/anti-mouse-HRP (Calbiochem 401207; 1:2,000), exposure time: 1 minute. (B) Alignment of both peptide sequences DAXXp-211 and DAXXp-209; corresponding to the brightest spots, to determine the optimal DAXX peptide sequence.
FIG. 8: Determination of FADDp15 and its anti-apoptotic effect in cardiomyocytes. (A) The protein sequences of FADD were dissected in overlapping peptide arrays (pepscan; 15 mer peptides with a shift of 3 amino acids) and analyzed using enzyme-linked blot. […] (B) The peptide sequence of FADDp-11 (=FADDp15=SEQ ID NO: 9) was successively shortened by one amino acid residue at the C-terminus, the N-terminus, or at both the C-terminus and the N-terminus, and analyzed using enzyme-linked blot. […] The shortest FADD epitope (a 9-mer with sequence KRKLERVQS (=FADDp=SEQ ID NO: 12)) corresponded to spot No. 24. Incubation conditions: His-tagged intracellular region of Fas receptor [10 μg/ml]; antibodies: anti-His-(mouse) (Sigma H1029; 1:6,000)/anti-mouse-HRP (Calbiochem 401207; 1:2,000), exposure time: 1 minute.
The peptides were synthesized on N-modified CAPE-membranes (Bhargava et al, Mol. Recognit, 2002, 15: 145) and prepared by a MultiPep SPOT-robot (INTAVIS Bioanalytical Instruments AG, Cologne, Germany). Array design was performed with the aid of the in-house software LISA 1.71. The synthesis started with spot definition using a standard protocol [Frank, Tetrahedron, 1992, 48: 9217), followed by the coupling of a solution of Fmoc-cysteine-(Trt)-Opfp (0.3M) in N-methylpyrolidone (NMP) and Fmoc-alanine-Opfp (double coupling, 15 min reaction each). After Fmoc cleavage with piperidine in DMF (20%), 4-hydroxymethylphenoxyacetic acid (HMPA) dissolved in dimethylformamide (DMF, 0.6M solution) and activated with EEDQ (1.1 equiv) was added, and samples were directly spotted on the membrane (4× coupling, 15 min reaction each). The membrane was acetylated with acetic anhydride in DMF (2%), washed with DMF (5×3 min), ethanol (2×3 min), and diethyl ether (2×3 min), and finally air dried. Solutions of Fmoc-amino acid-OH (0.4M) activated with 1,1′-carbonyldiimidazole (CDI, 3 equiv) in DMF were spotted on the membrane (4× coupling, 15 min reaction time each). Proline, tyrosine, and glutamine were activated with 1,1′-carbonyldi(1,2,4-triazole) (CDT). The Fmoc group was removed from the spots, and the peptide sequences were completed using the standard SPOT synthesis protocol (Frank, Tetrahedron, 1992, 48: 9217) followed by a N-terminal tag with β-alanine.
The primary sequence of the DAXX protein (SEQ ID NO: 1) was dissected in overlapping 15 mer peptides (3 amino acids shift) and all the peptides (243 peptides) were synthesized on cellulose membrane by SPOT synthesis as described above. The peptide library was incubated with the His-tagged intra-cellular region of the Fas receptor (Sigma). […]

With “GRKKRRQRRRPPQKKSRKEKKQTGSGPLG-NH2 [Tat-DAXXp, GRKKRRQRRRPPQ-KKSRKEKKQTGSGPLG-NH2]”, the “reduction in DNA fragmentation” value with C2C12 cells amounted to 24%. On to “KKSRKEKKQTGSGPLG-NH2 [DAXXp, KKSRKEKKQTGSGPLG-NH2]”, for which the “interaction with the Fas receptor / signal intensity of the spot” value in assay [1] is “interact with the Fas receptor”.
